{
  "source": "ChEMBL document CHEMBL3638792",
  "about": "“Indazoles” (2014)",
  "key": {"[1]": {"molecular_target": "Tyrosine-protein kinase JAK1 (Homo sapiens, UniProt P23458)", "sequence (P23458 whole entry)": "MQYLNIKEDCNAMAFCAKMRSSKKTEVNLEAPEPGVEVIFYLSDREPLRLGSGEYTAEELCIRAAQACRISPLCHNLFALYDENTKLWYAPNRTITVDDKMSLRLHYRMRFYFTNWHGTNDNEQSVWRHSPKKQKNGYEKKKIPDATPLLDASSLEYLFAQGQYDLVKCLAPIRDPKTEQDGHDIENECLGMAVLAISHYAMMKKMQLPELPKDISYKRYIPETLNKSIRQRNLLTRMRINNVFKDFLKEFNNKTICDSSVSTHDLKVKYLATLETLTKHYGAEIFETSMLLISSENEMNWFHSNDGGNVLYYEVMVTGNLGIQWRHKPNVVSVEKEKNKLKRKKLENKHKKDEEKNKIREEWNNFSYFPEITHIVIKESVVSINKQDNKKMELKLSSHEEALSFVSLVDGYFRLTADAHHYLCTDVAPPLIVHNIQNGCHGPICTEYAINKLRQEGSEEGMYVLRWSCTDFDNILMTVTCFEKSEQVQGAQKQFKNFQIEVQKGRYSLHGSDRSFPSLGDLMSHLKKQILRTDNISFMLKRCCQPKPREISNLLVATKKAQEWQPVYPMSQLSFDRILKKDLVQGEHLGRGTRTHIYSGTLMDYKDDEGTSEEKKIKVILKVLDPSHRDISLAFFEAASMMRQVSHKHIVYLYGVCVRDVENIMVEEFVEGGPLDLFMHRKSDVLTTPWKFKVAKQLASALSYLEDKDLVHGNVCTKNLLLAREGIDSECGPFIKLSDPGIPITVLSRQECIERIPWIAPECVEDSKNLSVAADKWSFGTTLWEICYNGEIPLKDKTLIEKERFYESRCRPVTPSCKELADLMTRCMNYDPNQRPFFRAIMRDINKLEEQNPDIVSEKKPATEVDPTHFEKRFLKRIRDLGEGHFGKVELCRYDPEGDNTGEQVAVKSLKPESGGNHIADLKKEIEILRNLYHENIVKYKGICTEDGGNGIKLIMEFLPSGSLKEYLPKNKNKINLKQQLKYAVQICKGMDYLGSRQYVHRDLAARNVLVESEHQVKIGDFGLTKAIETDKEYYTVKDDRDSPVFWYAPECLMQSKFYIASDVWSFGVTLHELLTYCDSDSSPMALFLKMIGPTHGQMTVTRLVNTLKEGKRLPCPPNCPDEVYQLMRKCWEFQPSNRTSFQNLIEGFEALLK", "assay": "High ATP Caliper Endpoint Assay: JAK1 enzyme (Invitrogen) stock solution is made up at 5.2 uM in sterile water. JAK1 enzyme stock is diluted to 20 nM in assay buffer (10 mM HEPES free acid pH 7.5, 10 mM HEPES free base pH 7.5, 10 mM MgCL2, 0.0005% Tween-20, 0.01% BSA) containing 2 mM DTT (all supplied by Sigma) with the addition of one protease tablet per 25 mls buffer (Roche). ATP is made up at 10 mM stock in sterile water and diluted to 5 mM in assay buffer. Peptide H236 (Caliper Life Sciences) is made up at 1.5 mM in 100% DMSO and diluted to 3 uM in assay buffer. Stop buffer comprises 140 mM HEPES, 22.5 mM EDTA (Sigma) and 0.15% coating reagent (Caliper Life Sciences).Assays are performed in Greiner polypropylene 384 well plates. Following compound preparation within the plate 10 ul of enzyme in assay buffer containing DTT is added using a Multidrop Micro. Final assay concentration of enzyme is 10 nM. Compound and enzyme are pre-incubated for 30 minutes at room temperature."}, "[2]": {"molecular_target": "T1, Tyrosine-protein kinase JAK3 (Homo sapiens, UniProt P52333)", "T1 sequence (P52333 whole entry)": "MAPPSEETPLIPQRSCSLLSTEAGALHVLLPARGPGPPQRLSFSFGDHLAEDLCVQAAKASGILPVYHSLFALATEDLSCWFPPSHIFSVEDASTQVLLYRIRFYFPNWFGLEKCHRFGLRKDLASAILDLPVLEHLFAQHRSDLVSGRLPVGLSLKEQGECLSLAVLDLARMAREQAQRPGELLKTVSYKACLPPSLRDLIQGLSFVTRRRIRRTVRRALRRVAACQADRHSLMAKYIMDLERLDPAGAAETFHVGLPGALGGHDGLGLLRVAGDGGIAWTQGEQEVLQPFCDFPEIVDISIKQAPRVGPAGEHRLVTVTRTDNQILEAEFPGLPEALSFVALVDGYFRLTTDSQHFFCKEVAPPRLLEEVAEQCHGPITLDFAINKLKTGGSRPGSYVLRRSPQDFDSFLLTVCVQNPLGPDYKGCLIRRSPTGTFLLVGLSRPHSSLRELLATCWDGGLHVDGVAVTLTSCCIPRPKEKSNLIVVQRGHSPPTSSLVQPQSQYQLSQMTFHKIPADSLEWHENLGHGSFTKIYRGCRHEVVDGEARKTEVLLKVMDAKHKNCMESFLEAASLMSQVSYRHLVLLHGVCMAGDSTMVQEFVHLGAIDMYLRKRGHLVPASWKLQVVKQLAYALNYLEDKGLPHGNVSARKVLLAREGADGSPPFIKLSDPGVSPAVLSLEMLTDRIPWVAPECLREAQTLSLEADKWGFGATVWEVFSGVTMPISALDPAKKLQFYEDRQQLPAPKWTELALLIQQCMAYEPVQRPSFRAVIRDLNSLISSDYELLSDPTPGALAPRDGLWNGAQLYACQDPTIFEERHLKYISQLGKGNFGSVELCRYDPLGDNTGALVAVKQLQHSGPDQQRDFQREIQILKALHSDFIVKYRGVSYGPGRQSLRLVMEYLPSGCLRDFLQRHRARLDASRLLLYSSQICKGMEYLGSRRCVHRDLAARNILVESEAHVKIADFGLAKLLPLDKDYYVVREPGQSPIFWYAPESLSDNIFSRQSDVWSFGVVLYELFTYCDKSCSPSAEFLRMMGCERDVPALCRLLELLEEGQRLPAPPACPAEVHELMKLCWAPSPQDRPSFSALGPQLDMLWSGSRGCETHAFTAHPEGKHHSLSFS", "assay": "High ATP Caliper Endpoint Assay: JAK3 enzyme (Invitrogen) stock solution is made up at 4.1 uM in sterile water. JAK3 enzyme stock is diluted to 2 nM in assay buffer (10 mM HEPES free acid pH 7.5, 10 mM HEPES free base pH 7.5, 10 mM MgCL2, 0.0005% Tween-20, 0.01% BSA) containing 2 mM DTT (all supplied by Sigma). ATP is made up at 10 mM stock in sterile water and diluted to 800 uM in assay buffer. …"}},
  "data": [
    {"smiles": "CCc1cc(O)c(F)cc1-c1ccc2c(-c3nc4c([nH]3)CCN(Cc3ccc5ncccc5c3)C4)n[nH]c2c1", "values": [
      {"measurement": "IC50", "setting": "[1]", "result": 4.2, "unit": "nM"},
      {"measurement": "IC50", "setting": "[2]", "result": 1.4, "unit": "nM"}
    ]},
    {"smiles": "CCc1cc(O)c(F)cc1-c1ccc2c(-c3nc4c([nH]3)CCN(C(=O)c3ccc(C#N)nc3)CC4)n[nH]c2c1", "values": [
      {"measurement": "IC50", "setting": "[1]", "result": 3.4, "unit": "nM"},
      {"measurement": "IC50", "setting": "[2]", "result": 1.4, "unit": "nM"}
    ]}
  ]
}
